Columns and labels:
[1] = target: T1, human jejunal NK2 receptor (Homo sapiens, UniProt P21452); assay: Antagonism of iodinated tachykinin (125I-neurokinin A) binding to NK2 receptor in HSKR-1 cells
T1 construct: expressed in transfected cells; host or cells: HSKR-1 cells (mouse 3T3 fibroblasts)
T1 sequence (P21452 1-398): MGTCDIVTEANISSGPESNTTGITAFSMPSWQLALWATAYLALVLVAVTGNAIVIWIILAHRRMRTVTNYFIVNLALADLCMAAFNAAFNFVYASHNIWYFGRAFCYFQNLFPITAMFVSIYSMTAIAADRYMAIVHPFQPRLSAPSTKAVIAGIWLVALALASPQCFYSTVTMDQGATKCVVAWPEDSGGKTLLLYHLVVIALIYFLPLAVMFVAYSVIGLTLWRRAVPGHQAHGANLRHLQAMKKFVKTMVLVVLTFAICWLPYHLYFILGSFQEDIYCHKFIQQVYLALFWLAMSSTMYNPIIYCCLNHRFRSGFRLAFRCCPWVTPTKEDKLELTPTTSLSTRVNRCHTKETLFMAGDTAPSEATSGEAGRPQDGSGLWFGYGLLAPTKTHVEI
Description: ANTAGONISM OF IODINATED TACHYKININ BINDING TO NK1 AND NK2 RECEPTORS BY PUTATIVE ANTAGONISTS
The NK1 receptor affinity of proposed tachykinin antagonists was evaluated in guinea pig lungs (Keystone Biologicals, Cleveland, Ohio), affinity for the NK2 receptor evaluated in HSKR-1 cells (which are mouse 3T3 fibroblasts expressing the human jejunal NK2 receptor) and NK-3 receptor affinity was evaluated in freshly collected guinea pig cerebral cortex. Tissues or cells were homogenized with a Polytron in 15 volumes of 50 mM Tris-HCl buffer (pH 7.4, 4° C.) and centrifuged. The pellet was resuspended in Tris-HCl buffer and was centrifuged; the pellet was washed twice by resuspension. The final pellet was resuspended at a concentration of 40 mg/ml for tissues (guinea pig lung and cerebral cortex) and 20 mg/ml for cells in incubation buffer and remained at room temperature for at least 15 min prior to use. […] Filter bound radioactivity was quantitated in a gamma counter. […] Specific binding was calculated by subtracting nonspecific binding from total binding. Competition of iodinated SP, NKA, or eledoisin binding by test compounds or standards was expressed as a percentage of this maximum competition. […]

[2] = target: NK1 receptor (Cavia porcellus, UniProt P30547); assay: Antagonism of SP-induced plasma protein extravasation in guinea pig trachea; type: in vivo; design: SP-induced plasma protein extravasation in guinea pig trachea; from tissue; host or cells: living guinea pig; trachea and primary bronchi; details: i.v.
Description: ANTAGONISM OF SP-INDUCED PLASMA PROTEIN EXTRAVASATION IN GUINEA PIG TRACHEA
SP-induced protein leakage through postcapillary venules was assessed by measuring Evans Blue dye accumulation in guinea pig trachea. Animals were anesthetized with pentobarbital then injected with Evans Blue dye (20 mg/kg, i.v., prepared in 0.9% NaCl solution). One minute after dye administration, the antagonist was administered (i.v.) followed by SP (0.3 nmole/kg, i.v.) and, after 5 min, excess dye removed from the circulation by transcardiac perfusion with 50 ml 0.9% NaCl solution. The trachea and primary bronchi were removed, blotted dry and weighed. Dye quantitation was performed spectrophotometrically ([…]) after extracting tissues in formamide for 24 hr at 50° C. Values were subtracted from background (dye only, no agonist). ED50 (dose of compound which inhibits SP-induced plasma protein extravasation by 50%) was calculated from linear regression analysis.

[3] = test system: NK2 receptor; assay: Antagonism of NKA aerosol induced respiratory effects in conscious guinea pigs; type: in vivo, guinea pig; details: 20 min prior to NKA aerosol (0.05%); for DYSPNEA ONSET: mean and SEM
Description: ANTAGONISM OF NKA AND CAPSAICIN INDUCED R[…] IN CONSCIOUS GUINEA PIGS
In vivo experiments were performed using male Duncan Hartley guinea pigs (250-350 g). Changes in conscious breathing patterns were monitored in four animals simultaneously using modified whole body plethysmography consisting of four small plexiglass boxes each connected to a reference box via Validyne DP 45-16 differential pressure transducers. The 4 boxes were equipped with an air supply line (also used for aerosol delivery) and an exhaust air line. Supply and exhaust lines were of the same length and narrow bore and arose from a common supply chamber and vented to a common exhaust chamber. This system was used to ensure that fluctuations in supply air and atmospheric pressure would remain in phase and be eliminated from the net signal by the differential pressure transducers. The analog pressure signals were digitalized via a Data Translation DT2821 A to D board. Data were collected at a rate of 100 samples/second/animal. Each cycle of pressure change was analyzed using the following parameters: rising and falling slope determined between minimum and maximum pressures, the ratio of rising over falling slope, and the magnitude of the change between initial trough pressure and peak cycle pressure. Using these values (and observing the animals) the pressure cycles were characterized into normal breaths, forced exhalations (apparent by abdominal heaving), significant respiratory events (SREs; usually coughs, less often sneezes or gasps which were characterized by transient, extremely large pressure increases which were distinguishable from noise) and movement/noise with a PCAT 286 running a System V UNIX operating system. Dyspnea was defined as a significant, sustained increase in plethysmograph pressure which was associated with an observable shift to labored breathing in the animal.
During the course of a typical experiment in which airway responsiveness to various bronchoconstricting agents was examined, aerosols were delivered for 19 min (0.33 ml/min) using a DeVilbiss Ultraneb 99 ultrasonic nebulizer and animals monitored during this time. Prior to nebulization, 1 min of resting breathing was collected to establish a baseline pressure. […] The vehicle for nebulization of all bronchoconstrictive agents was phosphate buffered saline (pH 7.4) which elicited no r[…] itself. Putative tachykinin antagonists were administered either (i.v.) 20 min prior to onset of aerosol exposure or orally 1 hour prior to onset (to guinea pigs after an overnight fast).
Table 6 illustrates the effects of the compounds of Example 3; Example 20A; and Example 5A on r[…] induced by NKA aerosol. […] These effects were dose dependent i.e. the higher the dose of compound, the greater attenuation of NKA-mediated effects.

Sequence of NK1 receptor (P30547 whole entry): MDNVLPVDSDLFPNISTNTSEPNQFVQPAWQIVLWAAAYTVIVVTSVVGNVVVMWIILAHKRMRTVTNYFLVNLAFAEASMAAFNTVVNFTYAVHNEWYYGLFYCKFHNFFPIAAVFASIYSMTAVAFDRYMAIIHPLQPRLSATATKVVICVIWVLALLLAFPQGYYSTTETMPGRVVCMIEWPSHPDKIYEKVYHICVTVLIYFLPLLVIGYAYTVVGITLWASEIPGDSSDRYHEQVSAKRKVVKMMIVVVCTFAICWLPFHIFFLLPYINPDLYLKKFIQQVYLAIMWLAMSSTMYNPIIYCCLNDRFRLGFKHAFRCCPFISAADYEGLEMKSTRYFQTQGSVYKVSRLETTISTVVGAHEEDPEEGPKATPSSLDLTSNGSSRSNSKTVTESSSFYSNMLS

COc1cc(C(=O)N2CCC(CCN3CCC(C(N)=O)(c4ccccc4)CC3)(c3ccc(Cl)c(Cl)c3)C2)cc(OC)c1OC (stereo not shown) [Example 3, 1-[2-[3-(3,4-dichloro-phenyl)-1-(3,4,5-trimethoxy-benzoyl)-pyrrolidin-3-yl]-ethyl]-4-phenyl-piperidine-4-carboxylic acid amide]
affinity for NK2 receptors (in words) [1]: high affinity
antagonism of SP-induced plasma protein extravasation (in words, FIG. 2) [2]: dose related antagonism
relative potency as NK-1 receptor antagonists (in words) ([2]; Example 3 versus Example 20A): equipotent
DYSPNEA INCIDENCE ([3]; 5 mg/kg): 86%
DYSPNEA ONSET ([3]; 5 mg/kg): 394 ± 32 s
DYSPNEA INCIDENCE ([3]; 10 mg/kg): 60%
DYSPNEA ONSET ([3]; 10 mg/kg): 801 ± 104 s

Reference: US5648366A, “Substituted pyrrolidin-3-yl-alkyl-piperidines” (Merrell Pharmaceuticals Inc., priority 1995, dated 1997)
